Each structure is given as a SMILES string.

What all share (test): biochemical
Assay type in all cases: binding

Experiment [1] concerns the target T1, panel of 442 kinases (Homo sapiens, UniProt Q9UEE5).
T1 construct: purchased Ambit Biosciences (scanMAXX KINOMEscan)
T1 sequence (Q9UEE5 1-414): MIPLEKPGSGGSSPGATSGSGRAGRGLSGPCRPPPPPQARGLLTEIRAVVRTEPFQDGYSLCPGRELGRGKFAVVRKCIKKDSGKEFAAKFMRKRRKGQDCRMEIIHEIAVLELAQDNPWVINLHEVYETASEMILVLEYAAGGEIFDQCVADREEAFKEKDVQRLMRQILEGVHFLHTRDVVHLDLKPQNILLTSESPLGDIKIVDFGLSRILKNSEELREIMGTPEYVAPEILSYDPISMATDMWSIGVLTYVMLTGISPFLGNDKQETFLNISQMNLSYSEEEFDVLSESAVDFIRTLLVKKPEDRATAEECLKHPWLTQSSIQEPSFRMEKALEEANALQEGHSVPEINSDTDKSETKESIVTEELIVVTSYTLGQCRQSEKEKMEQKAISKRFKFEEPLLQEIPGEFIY
The following applies: DRAK1; for remaining activity at 1 µM: read-out: % of control at 1 µM.

Experiment [2] deals with T2, panel of 442 kinases (Homo sapiens, UniProt O96013).
T2 construct: purchased Ambit Biosciences (scanMAXX KINOMEscan)
T2 sequence (O96013 whole entry): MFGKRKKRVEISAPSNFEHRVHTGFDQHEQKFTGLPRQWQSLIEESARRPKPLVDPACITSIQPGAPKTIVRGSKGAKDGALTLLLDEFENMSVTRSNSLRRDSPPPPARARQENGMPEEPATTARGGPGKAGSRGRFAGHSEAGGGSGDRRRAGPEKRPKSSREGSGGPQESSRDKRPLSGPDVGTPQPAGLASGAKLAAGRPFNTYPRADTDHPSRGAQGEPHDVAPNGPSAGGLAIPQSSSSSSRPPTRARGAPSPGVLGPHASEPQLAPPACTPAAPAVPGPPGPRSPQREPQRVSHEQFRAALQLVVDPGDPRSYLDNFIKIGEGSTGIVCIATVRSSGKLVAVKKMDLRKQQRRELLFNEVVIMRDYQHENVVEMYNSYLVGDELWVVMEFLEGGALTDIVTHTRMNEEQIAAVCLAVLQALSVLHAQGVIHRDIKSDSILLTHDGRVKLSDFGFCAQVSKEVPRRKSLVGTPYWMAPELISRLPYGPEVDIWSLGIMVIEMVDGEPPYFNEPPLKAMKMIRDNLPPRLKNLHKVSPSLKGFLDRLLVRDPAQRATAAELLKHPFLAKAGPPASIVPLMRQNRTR
The following applies: kinase PAK4; for remaining activity at 1 µM: read-out: % of control at 1 µM.

The target of experiment [3] is T3, panel of 442 kinases (Homo sapiens, UniProt Q96NX5).
T3 construct: purchased Ambit Biosciences (scanMAXX KINOMEscan)
T3 sequence (Q96NX5 whole entry): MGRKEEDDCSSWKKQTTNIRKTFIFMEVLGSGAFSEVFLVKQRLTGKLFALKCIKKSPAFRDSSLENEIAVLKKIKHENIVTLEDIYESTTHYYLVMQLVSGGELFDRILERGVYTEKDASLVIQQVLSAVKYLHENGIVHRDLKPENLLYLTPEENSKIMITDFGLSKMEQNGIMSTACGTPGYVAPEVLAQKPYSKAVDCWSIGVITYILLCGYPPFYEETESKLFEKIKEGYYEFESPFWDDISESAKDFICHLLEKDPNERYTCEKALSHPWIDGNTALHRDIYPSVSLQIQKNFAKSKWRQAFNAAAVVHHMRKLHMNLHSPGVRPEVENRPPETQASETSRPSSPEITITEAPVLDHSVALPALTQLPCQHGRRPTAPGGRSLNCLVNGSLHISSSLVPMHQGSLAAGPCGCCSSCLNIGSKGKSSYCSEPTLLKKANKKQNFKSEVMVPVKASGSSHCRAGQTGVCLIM
The note with it: CAMK1G; for remaining activity at 1 µM: read-out: % of control at 1 µM.

For experiment [4], the target named is T4, panel of 442 kinases (Homo sapiens, UniProt Q12866).
T4 construct: purchased Ambit Biosciences (scanMAXX KINOMEscan)
T4 sequence (Q12866 21-999): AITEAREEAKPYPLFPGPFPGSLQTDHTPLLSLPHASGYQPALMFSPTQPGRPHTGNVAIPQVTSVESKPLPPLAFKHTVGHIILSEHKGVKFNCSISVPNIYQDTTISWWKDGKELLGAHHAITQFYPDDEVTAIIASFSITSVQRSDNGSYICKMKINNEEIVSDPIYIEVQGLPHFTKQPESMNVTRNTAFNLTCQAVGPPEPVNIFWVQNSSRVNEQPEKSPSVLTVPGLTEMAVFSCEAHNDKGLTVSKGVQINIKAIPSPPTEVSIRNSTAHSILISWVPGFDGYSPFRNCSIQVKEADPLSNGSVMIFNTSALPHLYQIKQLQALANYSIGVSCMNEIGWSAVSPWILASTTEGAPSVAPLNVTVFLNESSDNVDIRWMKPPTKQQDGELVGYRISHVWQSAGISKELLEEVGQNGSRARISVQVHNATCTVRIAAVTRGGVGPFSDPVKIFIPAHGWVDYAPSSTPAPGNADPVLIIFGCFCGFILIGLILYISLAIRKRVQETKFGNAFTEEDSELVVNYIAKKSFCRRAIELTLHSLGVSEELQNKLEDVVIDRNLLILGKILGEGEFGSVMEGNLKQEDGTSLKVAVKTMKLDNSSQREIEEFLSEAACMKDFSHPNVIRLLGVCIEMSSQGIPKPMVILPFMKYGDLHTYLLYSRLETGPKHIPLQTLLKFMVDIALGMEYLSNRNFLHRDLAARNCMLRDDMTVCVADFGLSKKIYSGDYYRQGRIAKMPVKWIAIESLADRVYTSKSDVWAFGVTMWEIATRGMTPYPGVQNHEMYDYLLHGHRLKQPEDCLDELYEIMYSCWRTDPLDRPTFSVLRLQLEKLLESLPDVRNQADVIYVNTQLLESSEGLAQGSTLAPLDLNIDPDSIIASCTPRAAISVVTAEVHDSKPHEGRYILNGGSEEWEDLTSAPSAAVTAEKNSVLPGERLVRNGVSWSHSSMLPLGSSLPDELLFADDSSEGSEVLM
The note with it: kinase MERTK; for remaining activity at 1 µM: read-out: % of control at 1 µM.

For experiment [5], the target named is T5, panel of 442 kinases (Homo sapiens, UniProt O95382).
T5 construct: purchased Ambit Biosciences (scanMAXX KINOMEscan)
T5 sequence (O95382 1-1288): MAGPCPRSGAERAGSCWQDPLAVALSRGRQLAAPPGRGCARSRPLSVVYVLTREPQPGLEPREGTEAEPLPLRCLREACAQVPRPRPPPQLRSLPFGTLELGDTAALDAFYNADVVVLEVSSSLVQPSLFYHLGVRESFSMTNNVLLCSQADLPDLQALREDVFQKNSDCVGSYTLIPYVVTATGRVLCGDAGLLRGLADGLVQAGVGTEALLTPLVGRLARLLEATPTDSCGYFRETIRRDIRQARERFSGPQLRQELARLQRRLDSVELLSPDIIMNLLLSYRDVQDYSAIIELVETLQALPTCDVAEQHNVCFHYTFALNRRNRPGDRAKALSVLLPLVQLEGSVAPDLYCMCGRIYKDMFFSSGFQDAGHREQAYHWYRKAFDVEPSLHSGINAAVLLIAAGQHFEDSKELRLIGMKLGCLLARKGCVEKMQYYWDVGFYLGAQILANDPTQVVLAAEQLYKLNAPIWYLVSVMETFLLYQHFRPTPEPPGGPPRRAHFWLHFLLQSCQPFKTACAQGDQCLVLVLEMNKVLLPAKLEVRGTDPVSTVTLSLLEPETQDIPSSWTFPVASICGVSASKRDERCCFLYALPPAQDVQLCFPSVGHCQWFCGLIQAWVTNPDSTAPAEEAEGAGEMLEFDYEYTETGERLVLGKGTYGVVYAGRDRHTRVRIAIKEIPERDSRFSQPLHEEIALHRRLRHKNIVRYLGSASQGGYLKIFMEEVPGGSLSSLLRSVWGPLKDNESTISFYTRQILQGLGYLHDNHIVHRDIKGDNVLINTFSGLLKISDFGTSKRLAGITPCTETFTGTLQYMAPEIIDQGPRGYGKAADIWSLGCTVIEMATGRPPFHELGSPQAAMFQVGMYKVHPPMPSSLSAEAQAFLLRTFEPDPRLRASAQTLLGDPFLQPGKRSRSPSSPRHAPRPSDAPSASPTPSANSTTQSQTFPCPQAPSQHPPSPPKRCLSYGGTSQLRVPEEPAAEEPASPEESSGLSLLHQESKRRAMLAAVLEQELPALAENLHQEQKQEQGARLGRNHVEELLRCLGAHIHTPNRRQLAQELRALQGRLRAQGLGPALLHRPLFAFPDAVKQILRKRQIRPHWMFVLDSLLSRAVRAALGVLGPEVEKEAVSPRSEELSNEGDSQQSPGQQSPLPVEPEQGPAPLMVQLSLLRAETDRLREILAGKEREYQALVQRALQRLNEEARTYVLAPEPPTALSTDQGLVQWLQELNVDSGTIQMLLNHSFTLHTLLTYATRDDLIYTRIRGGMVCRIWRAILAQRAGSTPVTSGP
The note with it: ASK2; for remaining activity at 1 µM: read-out: % of control at 1 µM.

The target in experiment [6] is T6, panel of 442 kinases (Homo sapiens, UniProt Q05397).
T6 construct: purchased Ambit Biosciences (scanMAXX KINOMEscan)
T6 sequence (Q05397 whole entry): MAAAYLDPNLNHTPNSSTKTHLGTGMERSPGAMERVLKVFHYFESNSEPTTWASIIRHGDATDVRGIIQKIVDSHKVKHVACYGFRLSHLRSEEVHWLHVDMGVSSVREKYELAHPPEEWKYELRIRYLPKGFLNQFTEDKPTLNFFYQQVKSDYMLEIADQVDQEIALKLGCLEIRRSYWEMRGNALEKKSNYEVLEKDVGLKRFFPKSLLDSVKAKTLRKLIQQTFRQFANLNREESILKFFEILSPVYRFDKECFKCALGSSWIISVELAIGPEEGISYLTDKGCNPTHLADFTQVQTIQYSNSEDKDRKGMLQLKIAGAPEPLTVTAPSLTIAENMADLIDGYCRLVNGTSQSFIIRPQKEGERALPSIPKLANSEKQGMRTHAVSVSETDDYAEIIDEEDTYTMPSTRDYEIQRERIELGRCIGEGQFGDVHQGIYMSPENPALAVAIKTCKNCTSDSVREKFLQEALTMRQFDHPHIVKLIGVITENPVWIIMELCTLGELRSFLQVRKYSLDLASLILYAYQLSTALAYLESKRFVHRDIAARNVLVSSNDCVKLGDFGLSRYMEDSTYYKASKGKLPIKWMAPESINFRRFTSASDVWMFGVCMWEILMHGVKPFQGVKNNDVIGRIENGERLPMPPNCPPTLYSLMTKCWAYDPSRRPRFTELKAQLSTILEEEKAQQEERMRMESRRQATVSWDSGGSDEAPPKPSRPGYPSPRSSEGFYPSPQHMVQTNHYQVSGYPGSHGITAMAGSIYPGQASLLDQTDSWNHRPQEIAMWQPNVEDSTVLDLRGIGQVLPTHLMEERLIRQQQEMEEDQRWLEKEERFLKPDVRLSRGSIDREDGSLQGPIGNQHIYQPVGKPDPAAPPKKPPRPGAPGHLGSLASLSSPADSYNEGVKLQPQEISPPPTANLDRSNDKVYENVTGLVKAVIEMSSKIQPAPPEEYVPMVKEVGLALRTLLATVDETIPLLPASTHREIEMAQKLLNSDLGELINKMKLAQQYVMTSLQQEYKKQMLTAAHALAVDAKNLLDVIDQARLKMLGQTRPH
The following applies: FAK; for remaining activity at 1 µM: read-out: % of control at 1 µM.

Where [7] appears, read: 10 µM, read-out: % of control at 10 µM.

As for `Nc1cc(C(F)(F)F)c(-c2cc(N3CCOCC3)nc(N3CCOCC3)n2)cn1` [Buparlisib], the remaining activity at 1 µM was 100% at panel of 442 kinases [1]; 93% at panel of 442 kinases [2]; 100% on panel of 442 kinases [3]; 98% at panel of 442 kinases [4]; 87% on panel of 442 kinases [5]; 100% at panel of 442 kinases [6]. Moreover, the remaining activity at 10 µM on panel of 442 kinases [1] (setting [7]) is 100%; on panel of 442 kinases [2] (setting [7]) it was 100%; at panel of 442 kinases [3] (setting [7]), 100%; at panel of 442 kinases [4] (setting [7]), 95%; at panel of 442 kinases [5] (setting [7]) it was 100%; at panel of 442 kinases [6] (setting [7]), 100%.
As to `Cn1c(=O)n(-c2ccc(C(C)(C)C#N)cc2)c2c3cc(-c4cnc5ccccc5c4)ccc3ncc21` [Dactolisib, 2-methyl-2-[4-(3-methyl-2-oxo-8-quinolin-3-yl-2,3-dihydroimidazo[4,5-c]quinolin-1-yl)-phenyl] propionitrile], the remaining activity at 1 µM on panel of 442 kinases [1] came to 91%; at panel of 442 kinases [2] it was 100%; on panel of 442 kinases [3] it was 87%; on panel of 442 kinases [4] it was 80%; on panel of 442 kinases [5], 90%; at panel of 442 kinases [6], 90%.
As to `FC(F)c1nc2ccccc2n1-c1nc(N2CCOCC2)nc(N2CCOCC2)n1` [ZSTK474, 2-(difluoromethyl)-1-[4,6-di(4-morpholinyl)-1,3,5-triazin-2-yl]-1H-benzimidazole], the remaining activity at 1 µM at panel of 442 kinases [1] amounted to 90%; on panel of 442 kinases [2], 96%; on panel of 442 kinases [3], 91%; on panel of 442 kinases [4], 84%; at panel of 442 kinases [5] it was 97%; on panel of 442 kinases [6], 90%.
Take `COc1ncc(-c2ccc3nccc(-c4ccnnc4)c3c2)cc1NS(=O)(=O)c1ccc(F)cc1F` [Omipalisib]: the remaining activity at 1 µM at panel of 442 kinases [1] worked out at 100%; on panel of 442 kinases [2], 95%; on panel of 442 kinases [3], 100%; at panel of 442 kinases [4], 100%; at panel of 442 kinases [5], 91%; at panel of 442 kinases [6], 94%.

The values above are taken from PMC5564600 (Oncotarget, 2017).
